*1 amine or outer side, *2 acyl side, *3 side chain or, on linkers, in order; H or OH if unused. Where a SMILES comes first, the peptide text is derived from it. Bridges are numbered along the chain shown (N, C = ends). [ ]: non-standard residue; d: D form. Trp(2-yl) = O=C([C@H](Cc1c([*:3])[nH]c2ccccc12)N[*:1])[*:2]; Leu(4R-OH,5-OH) = C[C@](O)(CO)C[C@H](N)C(=O)O; cisHyp = O=C(O)[C@@H]1C[C@H](O)CN1
Tests used:
quiescent A431 cells = experiment: GPCR agonist-induced DMR and EGFR transactivation; format: cell-based, human; settings: bradykinin 100 nM, carbachol 10 μM, clonidine 1 μM
Experimental: (§1) Both A431 and CHO-K1 cells were grown in Dulbecco's modified Eagle's medium (DMEM) supplemented with 10% fetal calf serum, 100 μg/ml penicillin, and 100 μg/ml streptomycin. For cell culture, certain numbers of cells (2×10^5 to 1×10^6), either A431 or CHO-K1, were suspended in […] medium were placed in each well of a 96 well Corning Epic Biosensor microplate, and were cultured at 37° C. in air/5% CO2 for certain time until the cell density reached ˜90% and above (unless specified). The resulted cells were termed as “profilerating” cells. The “quiescent” cells were obtained by culturing the profilerating cells of desired confluencies with a medium containing no or little (˜0.1% fetal bovine serum (FBS)) for at least 16 hours.
(§2) During the assays, the cells in 100 μl medium were subject to two 25 μl HBSS buffer containing 20 mM HEPES, pH 7.4, each separated by at least 15 minutes before 50 μl stimulus-containing solution was applied. During all these steps, a parallel angular interrogation system was used to monitor the real time kinetics of cellular responses. For compound effect studies, a modified protocol was used which starts with 50 μl medium, and subject to sequential treatment: 25 μl HBSS buffer twice (each separated by at least 15 minutes), 50 μl compound solution and finally 50 μl stimulus-containing solution.

CHO cells [1] = experiment: Saponin-permeabilized cell assay for cytoskeleton modulators (LID biosensor); format: cell-based, Chinese hamster; settings: saponin 67 ug/ml
Source text: The method involves the use of pore-forming reagents (e.g, saponin) to generate permeabilized cells which permit soluble proteins to diffuse away. It is known that treatment of the cells with many pore-forming reagents leads to permeabilized cells. Since intracellular macromolecules are highly organized within the cytoplasm of mammalian cells through direct binding to cytoskeletal elements, the permeabilized cells still retain most of the biological functions of living cells by sequestration of intracellular machinery through the cytoskeleton super-assembled structure, although the saponin-treated cells undergo the loss of some portions of biomacromolecules. However, upon disruption of microfilaments there is a dramatic reduction of protein synthesis accompanied by release of these translation components from the cells. Also, many other sequestered biomacromolecules are released from these permeabilized cells after disrupting the cytoskeleton structure. These further released materials from the permeabilized cells result in the loss in mass; thus resulting in the changes in effective refractive index of the cell layer on the surface of a LID biosensor which can be detected by LID biosensors. Thus, the changes obtained using optical biosensors can be used as an indicator of modulators that interfere with the cytoskeleton structure. In one embodiment, the present methods can be used to screen modulators that interfere with the cytoskeleton structure using the method 2500 shown in FIG. 25. In accordance with method 2500 one can monitor the mass redistribution due to pore formation of cell surface membranes induced by pore-forming reagents such as saponin in living cells 1008 by: (a) providing an optical LID biosensors 1004 (step 2502); (b) placing cells 1008 in a cell medium onto the said sensor 1004 (step 2504); (c) Optionally applying a buffer solution (step 2506); (d) applying a solution containing a compound into the cell mediums located on the top surfaces 1010 of covered optical LID biosensors 1004 (step 2508); applying a solution containing a pore-forming reagent (step 2510); and (e) interrogating the covered optical LID biosensors 1010 to monitor the time dependent optical responses which indicate mass redistributions within the permeabilized cells 1008 (step 2512). A Pore-forming reagent is a chemical or biological compound or composition that can result in the formation of pores in cell surface membranes when the cells are exposed to the reagent.
The pore-forming regents include detergents such as saponin and filipin, or toxin such as digitonin or streptolysin O. It is well known that treatment of the cells with these reagents can result in the pore formation in cell surface membrane; the resulted permeabilized cells can release a certain amount of intracellular material, mainly soluble proteins. However, there are a great number of bio-materials that still stay with these permeabilized cells due to the sequestration by directly binding or association with the cytoskeleton structure. As a matter of fact, these permeabilized cells retain many of the biological functions of living cells such as protein synthesis.
FIG. 50 presents the dose-dependent responses of CHO cells adherent on the surface of a LID sensor in response to saponin as a function of time. After the addition of saponin at different concentrations, a different response is evident. At low concentration, there is almost no response. […]

[2] = system: EGF-induced response of quiescent A431 cells; experiment: Effect of compound pretreatment on EGF-induced DMR response; format: cell-based, human; settings: for Effect of pretreatment on 32 nM EGF-induced response: quiescent A431 cells
Experimental: as §1, §2

[3] = target: T1, protease activated receptors PAR1 and PAR2 (Homo sapiens, UniProt P25116); format: cell-based; settings: 40 unit/ml thrombin; modulators 10 μM
T1 construct: A431 cells which endogenously express PAR1 and PAR2; endogenous in cells; host or cells: A431
T1 sequence (P25116 22-425): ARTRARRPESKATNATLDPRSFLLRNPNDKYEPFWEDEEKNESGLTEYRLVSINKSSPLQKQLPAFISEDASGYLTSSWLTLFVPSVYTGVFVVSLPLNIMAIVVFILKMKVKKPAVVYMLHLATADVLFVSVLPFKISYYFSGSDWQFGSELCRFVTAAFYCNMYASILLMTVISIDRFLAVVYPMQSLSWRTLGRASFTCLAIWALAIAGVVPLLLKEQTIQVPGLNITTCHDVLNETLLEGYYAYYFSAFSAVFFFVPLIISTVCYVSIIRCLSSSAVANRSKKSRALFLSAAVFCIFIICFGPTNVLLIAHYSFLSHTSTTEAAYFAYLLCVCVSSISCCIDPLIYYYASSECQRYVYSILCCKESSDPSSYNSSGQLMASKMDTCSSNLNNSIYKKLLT
Experimental: (§3) Human epidermoid carcinoma A431 cells (American Type Cell Culture) were grown in Dulbecco's modified Eagle's medium (DMEM) supplemented with 10% fetal bovine serum (FBS), 4.5 g/liter glucose, 2 mM glutamine, and antibiotics. ˜3-7.5×10^4 cells at passage 3 to 5 suspended in 200 μl the DMEM medium containing 10% FBS were placed in each well of a 96 well microplate, and were cultured at 37° C. under air/5% CO2 until ˜95% confluency was reached (˜2-4 days).
(§4) The compound or PAR agonist solutions were made in 1×HBSS in order to match the refractive index between the cell medium and compound solution, thus minimizing the unwanted effect of bulk index change due to the introduction of compound solution which can temporarily overwhelms any DMR signal as it occurs.

[4] = system: protease activated receptors PAR1 and PAR2; format: cell-based, human; settings: 100 or 200 nM trypsin; modulators 10 μM
Experimental: as §3, §4

CHO cells [5] = experiment: GPCR agonist-induced mass redistribution (optical LID); format: cell-based, Chinese hamster
Source text: These translocations can be located on a surface of an optical LID biosensor as disclosed herein. The particular data shown in FIGS. 52-60 was obtained using an optical waveguide grating sensor system and LID microplates (Nb2O5 plates), manufactured by Corning Incorporated. […] It is known that CHO cells 1008 endogenously express beta adrenergic receptors, alpha2-adrenergic receptors, P2Y receptors, as well as beta-arrestin and GRKs. It is also known that muscarinic receptors are endogenously expressed at very low level in the CHO cells 1008. In this experiment, approximately ˜5×10^4 CHO cells 1008 were placed within each well of a microplate that contained an array of optical LID biosensors 1004. The CHO cells 1008 were then cultured in 150 μl serum medium for 24 hours to ensure that the CHO cells 1008 became adherent to the substrate surface 1010. […] Since muscarinic receptors are endogenously expressed at very low level in CHO cells, oxotremorine M, agonist for muscarinic receptors, served as a control. Each of these agonists was directly applied to a different one of the wells which contained the serum medium. The optical responses were then collected by the optical LID system.

[6] = target: T2, rat muscarinic receptor subtype 1 (Rattus norvegicus, UniProt P08482); experiment: GPCR agonist-induced mass redistribution in M1 CHO cells (optical LID); format: cell-based
T2 construct: expressed in transfected cells; host or cells: CHO (M1 CHO)
T2 sequence (P08482 1-460): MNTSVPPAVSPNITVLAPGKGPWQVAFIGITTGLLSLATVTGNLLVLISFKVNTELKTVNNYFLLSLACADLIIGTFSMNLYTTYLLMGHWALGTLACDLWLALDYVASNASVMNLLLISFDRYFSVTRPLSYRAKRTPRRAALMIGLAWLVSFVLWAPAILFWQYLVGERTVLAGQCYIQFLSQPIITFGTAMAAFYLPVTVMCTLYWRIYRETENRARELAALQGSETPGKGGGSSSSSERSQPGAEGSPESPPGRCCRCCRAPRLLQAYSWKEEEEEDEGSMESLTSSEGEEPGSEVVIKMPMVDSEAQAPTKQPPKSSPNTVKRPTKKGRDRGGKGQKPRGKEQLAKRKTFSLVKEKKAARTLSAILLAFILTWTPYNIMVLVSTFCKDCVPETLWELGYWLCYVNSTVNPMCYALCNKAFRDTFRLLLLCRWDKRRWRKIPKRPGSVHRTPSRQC

C[N+](C)(C)CCOC(N)=O [Carbachol, carbachol]
GPCR agonist-induced DMR response curve (quiescent A431 cells): responses with almost identical features as those induced by low concentrations (2-8 nM) of EGF

C[C@H]1CCC/C=C/[C@@H]2C[C@H](O)C[C@H]2[C@H](O)/C=C/C(=O)O1 [brefeldin A]
Effect of compound pre-treatment on saponin-induced response (loss of biomaterials) (CHO cells [1]): show no effect on a saponin-induced response

C=C1[C@@H](C)[C@H]2[C@H](Cc3ccccc3)NC(=O)[C@]23OC(=O)/C=C/[C@H](O)CCC[C@@H](C)C/C=C/[C@H]3[C@@H]1O [cytochalasin B]
Effect of pretreatment on 32 nM EGF-induced response [2]: totally abolished the N-DMR signal | Effect of compound pre-treatment on saponin-induced response (loss of biomaterials) (CHO cells [1]): cause increased loss of biomaterials | Effect of pretreatment on thrombin-mediated DMR signal [3]: much less effective in suppressing the responses | Effect of pretreatment on trypsin-mediated DMR signal [4]: much less effective in suppressing the responses

C[N+](C)(C)CC#CCN1CCCC1=O [oxotremorine M]
Agonist-induced optical response (CHO cells [5]; ATP 100 μM, clonidine 10 μM, epinephrine 100 μM, oxotremorine M 10 μM): caused almost no cell response | Ligand-induced response in M1-CHO cells ([6]; 10 μM, compared with CHO cells): significantly larger responses in M1-CHO cells

C[C@@H]1NC(=O)[C@H](C[C@@](C)(O)CO)NC(=O)[C@@H]2Cc3c([nH]c4ccccc34)SC[C@H](NC(=O)[C@@H]([C@H](C)O)NC1=O)C(=O)N1C[C@@H](O)C[C@H]1C(=O)N[C@@H](C)C(=O)N2 [phalloidin] (cyclo(A[dT]C[cisHyp]A[Trp(2-yl)][Leu(4R-OH,5-OH)]); thioether 3-6)
Effect of pretreatment on 32 nM EGF-induced response [2]: hardly any effect on the EGF-induced response | Effect of compound pre-treatment on saponin-induced response (loss of biomaterials) (CHO cells [1]): delay the loss of biomaterials in saponin-treated cells | Effect of pretreatment on thrombin-mediated DMR signal [3]: neither a stabilizing polymeric F-actin agent phalloidin nor a microtubule disrupter nocodazole had significant effect | Effect of pretreatment on trypsin-mediated DMR signal [4]: neither a stabilizing polymeric F-actin agent phalloidin nor a microtubule disrupter nocodazole had significant effect

CC[C@]1(O)C[C@@H]2CN(CCc3c([nH]c4ccccc34)[C@@](C(=O)OC)(c3cc4c(cc3OC)N(C)[C@H]3[C@@](O)(C(=O)OC)[C@H](OC(C)=O)[C@]5(CC)C=CCN6CC[C@]43[C@@H]65)C2)C1 [vinblastine]
Effect of pretreatment on 32 nM EGF-induced response [2]: hardly any effect on the EGF-induced response | Effect of compound pre-treatment on saponin-induced response (loss of biomaterials) (CHO cells [1]): block the saponin-induced loss of biomaterials from the cells

dynamin inhibitory peptide [DIP]
Effect of pre-treatment on EGF-induced P-DMR and N-DMR signals ([2]; starved A431 cells, 8 nM EGF, 30-minute pretreatment, GH 0.5 ng/ml, PD98059 0.1 mM, PP1 1 μM, wortmannin 0.1 μM, DIP 50 μM): totally blocks the N-DMR signal, but slightly increases the P-DMR signal with much slower kinetics | Increase of total P-DMR signal in presence vs absence of compound ([2]; starved A431 cells, EGF, DIP 50 μM): 50% | Effect of compound pre-treatment on saponin-induced response (loss of biomaterials) (CHO cells [1]): show no effect on a saponin-induced response | Effect of pre-incubation on NECA-induced response (CHO cells [5]; DIP 50 μM, 45 minutes, NECA 10 μM, CHO): little effect on NECA-induced response | Effect of pre-incubation on clonidine-induced response (CHO cells [5]; DIP 50 μM, 45 minutes, clonidine 10 μM, CHO): almost totally eliminates the clonidine-induced mass distribution response | Effect of pre-incubation on oxotremorine M-induced response (CHO cells [5]; DIP 50 μM, 45 minutes, oxotremorine M 10 μM, CHO): almost totally eliminates the oxotremorine M-induced mass distribution responses in both cell lines | Effect of pre-incubation on NECA-induced response ([6]; DIP 50 μM, 45 minutes, NECA 10 μM, M1 CHO): little effect on NECA-induced response | Effect of pre-incubation on clonidine-induced response ([6]; DIP 50 μM, 45 minutes, clonidine 10 μM, M1 CHO): almost totally eliminates the clonidine-induced mass distribution response | Effect of pre-incubation on oxotremorine M-induced response ([6]; DIP 50 μM, 45 minutes, oxotremorine M 10 μM, M1 CHO): almost totally eliminates the oxotremorine M-induced mass distribution responses in both cell lines
